From patent US12624034B2, “Non-covalent modifiers of AKT1 and uses thereof” (Terremoto Biosciences, Inc., priority 2023, dated 2026)
Where two headings read alike, the source gives them in different places.

Columns and labels:
[1] = target: T1, AKT1 WT (Homo sapiens, UniProt P31749); test: Live cell AKT1 WT target engagement by NanoBRET competitive probe displacement in HEK293 cells; assay type: binding; conditions: 2 h at 37° C., read-out: AKT1 WT IC50
T1 construct: expressed in transfected cells; host or cells: HEK293
T1 sequence (P31749 whole entry): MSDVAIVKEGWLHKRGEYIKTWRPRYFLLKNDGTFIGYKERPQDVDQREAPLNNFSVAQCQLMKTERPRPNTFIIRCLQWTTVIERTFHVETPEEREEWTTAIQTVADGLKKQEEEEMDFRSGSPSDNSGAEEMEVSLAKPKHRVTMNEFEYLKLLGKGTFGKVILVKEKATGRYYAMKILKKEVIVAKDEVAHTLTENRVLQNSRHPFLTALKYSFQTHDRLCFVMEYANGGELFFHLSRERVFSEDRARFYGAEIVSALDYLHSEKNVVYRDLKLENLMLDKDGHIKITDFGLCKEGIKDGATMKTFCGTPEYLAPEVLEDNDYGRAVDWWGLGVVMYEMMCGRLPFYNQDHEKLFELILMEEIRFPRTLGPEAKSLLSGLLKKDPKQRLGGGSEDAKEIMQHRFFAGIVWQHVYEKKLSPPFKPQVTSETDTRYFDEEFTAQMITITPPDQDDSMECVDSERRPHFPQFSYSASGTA

[2] = target: T2, AKT1 E17K (Homo sapiens, UniProt P31749, E17K); test: Live cell AKT1 E17K target engagement by NanoBRET competitive probe displacement in HEK293 cells; assay type: binding; conditions: 2 h at 37° C.
T2 construct: expressed in transfected cells; host or cells: HEK293
T2 sequence (P31749 whole entry E17K): as the sequence (P31749 whole entry) above, with E17K counted along it
Description: Determining live cell AKT1 E17K, AKT1 WT, and AKT2 target engagement by NanoBRET competitive probe displacement. Live cell target engagement assays were performed as described (Vasta, J. D. et al. Cell Chem Biol 2018, 25(11), 206-214). Briefly, HEK293 cells were transfected with plasmids encoding kinase-NanoLuciferase fusion proteins overnight. Cells were then treated with serial dilutions of compound and an ˜EC50 concentration of fluorescently-tagged ATP-competitive tracer (Promega). After incubation for 2 h at 37° C., luciferase substrate and extracellular luciferase inhibitor were added to all wells, and luminescent intensity at 460 nm and 600 nm were measured on a multimode plate-reader. The ratio of E600/E460 was calculated to give the tracer engagement signal (BRET). IC50 values were calculated by fitting BRET values to a log(inhibitor) vs. response Hill equation.

[3] = target: T3, AKT2 (Homo sapiens, UniProt P31751); test: Live cell AKT2 target engagement by NanoBRET competitive probe displacement in HEK293 cells; assay type: binding; conditions: 2 h at 37° C., read-out: AKT2 IC50
T3 construct: expressed in transfected cells; host or cells: HEK293
T3 sequence (P31751 whole entry): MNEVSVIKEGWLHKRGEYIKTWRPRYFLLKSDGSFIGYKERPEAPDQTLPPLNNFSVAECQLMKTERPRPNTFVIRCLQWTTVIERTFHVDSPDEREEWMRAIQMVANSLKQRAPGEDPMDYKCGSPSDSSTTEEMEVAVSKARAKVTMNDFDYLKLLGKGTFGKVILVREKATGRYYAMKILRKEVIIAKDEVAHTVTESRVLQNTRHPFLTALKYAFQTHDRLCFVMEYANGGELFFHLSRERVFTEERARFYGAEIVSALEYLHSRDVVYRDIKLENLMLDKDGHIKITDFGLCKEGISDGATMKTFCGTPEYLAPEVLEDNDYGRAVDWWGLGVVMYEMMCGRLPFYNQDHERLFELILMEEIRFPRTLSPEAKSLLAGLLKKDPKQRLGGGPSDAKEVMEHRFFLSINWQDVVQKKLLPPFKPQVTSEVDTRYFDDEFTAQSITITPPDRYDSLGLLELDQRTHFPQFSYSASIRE

[4] = test system: LAPC4 prostate cancer cells, which express the AKT1 E17K allele; test: Antiproliferative effects in LAPC4 cells (CellTiter Glo, 72 h); assay type: cell-based; conditions: read-out: LAPC4 proliferation IC50
Description: Antiproliferative Effects in LAPC4 Cells.
LAPC4 prostate cancer cells (Klein, K. A. et al. Nat Med 1997, 3, 402-408), which express the AKT1 E17K allele, were grown in IMDM media (Hyclone) supplemented with 12% FBS+1% P/S. To assess compound effects on growth, 1,000 cells/well were seeded in 384 well assay plates, incubated with compound dilutions dissolved in DMSO. After 72 h, intracellular ATP content was assessed with CellTiter Glo reagent (Promega) according to the manufacturer's instructions. IC50 values were calculated by fitting luminescence values to a log(inhibitor) vs. response Hill equation.

[5] = NanoBRET live cell target engagement, HEK293 cells
[6] = NanoBRET competitive probe displacement, live HEK293 cells

Row | SMILES | IC50 [1, 5] | IC50 [2, 5] | IC50 [3, 5] | IC50 ([4]; Homo sapiens, LAPC4, 72 h) | IC50 [1, 6] | IC50 [2, 6] | IC50 [3, 6] | IC50 [4]
1 | CCc1coc(C(=O)N[C@H]2CCc3cc(-n4c(-c5cccnc5N)nc5ccc(-n6cccn6)nc54)ccc32)n1 [Compound 57, (S)—N-(5-(2-(2-aminopyridin-3-yl)-5-(1H-pyrazol-1-yl)-3H-imidazo[4,5-b]pyridin-3-yl)-2,3-dihydro-1H-inden-1-yl)-4-ethyloxazole-2-carboxamide] | 23.4 nM | 192 nM | 52.8 nM | 1320 nM | – | – | – | –
2 | COc1ccc(C(=O)N[C@H]2CCc3cc(-n4c(-c5cccnc5N)nc5ccc(-n6cccn6)nc54)ccc32)cc1 [Compound 12, (S)—N-(5-(2-(2-aminopyridin-3-yl)-5-(1H-pyrazol-1-yl)-3H-imidazo[4,5-b]pyridin-3-yl)-2,3-dihydro-1H-inden-1-yl)-4-methoxybenzamide] | 7.56 nM | 10.5 nM | 38.1 nM | 740 nM | – | – | – | –
3 | Nc1ncccc1-c1nc2ccc(-n3cccn3)nc2n1-c1ccc2c(c1)CC[C@@H]2NC(=O)c1ccc(O)c(F)c1 [Compound 16, (S)—N-(5-(2-(2-aminopyridin-3-yl)-5-(1H-pyrazol-1-yl)-3H-imidazo[4,5-b]pyridin-3-yl)-2,3-dihydro-1H-inden-1-yl)-3-fluoro-4-hydroxybenzamide] | 2.41 nM | 10.2 nM | 66.5 nM | 560 nM | – | – | – | –
4 | Cn1ccc2c(C(=O)N[C@H]3CCc4cc(-n5c(-c6cccnc6N)nc6ccc(-n7cccn7)nc65)ccc43)[nH]cc2c1=O [Compound 6, (S)—N-(5-(2-(2-aminopyridin-3-yl)-5-(1H-pyrazol-1-yl)-3H-imidazo[4,5-b]pyridin-3-yl)-2,3-dihydro-1H-inden-1-yl)-5-methyl-4-oxo-4,5-dihydro-2H-pyrrolo[3,4-c]pyridine-1-carboxamide] | 10.8 nM | 179 nM | 307 nM | 1660 nM | – | – | – | –
5 | Nc1ncccc1-c1nc2ccc(-n3cccn3)nc2n1-c1ccc2c(c1)CC[C@@H]2NC(=O)c1ccnc2c1OCCO2 [Compound 356] | 52.3 nM | > 1000 nM | 1070 nM | > 10000 nM | – | – | – | –
6 | Nc1ncccc1-c1nc2ccc(-n3cccn3)nc2n1-c1ccc2c(c1)CC[C@@H]2NC1CCN(c2ccccn2)CC1 [Compound 277] | 25.1 nM | 365 nM | 486 nM | 2440 nM | – | – | – | –
7 | Nc1ncccc1-c1nc2ccc(-n3cccn3)nc2n1-c1ccc2c(c1)CC[C@@H]2NC(=O)c1ccc(O)cc1 [Compound 42, (S)—N-(5-(2-(2-aminopyridin-3-yl)-5-(1H-pyrazol-1-yl)-3H-imidazo[4,5-b]pyridin-3-yl)-2,3-dihydro-1H-inden-1-yl)-4-hydroxybenzamide] | 2.84 nM | 14.4 nM | 40.7 nM | 631 nM | – | – | – | –
8 | Nc1ncccc1-c1nc2ccc(-n3cccn3)nc2n1-c1ccc2c(c1)CC[C@@H]2NC1CN(c2ccccn2)C1 [Compound 439] | – | – | – | 3820 nM | 15 nM | 655 nM | 794 nM | –
9 | Nc1ncccc1-c1nc2ccc(-n3cccn3)nc2n1-c1ccc2c(c1)CC[C@@H]2NC(=O)c1ccn(C(F)F)n1 [Compound 174] | 13.2 nM | 52 nM | 431 nM | 1440 nM | – | – | – | –
10 | N#CC1(C(=O)N2CCC(N[C@H]3CCc4cc(-n5c(-c6cccnc6N)nc6ccc(-n7cccn7)nc65)ccc43)CC2)CC1 [Compound 369] | 117 nM | > 1000 nM | 5590 nM | > 10000 nM | – | – | – | –
11 | Nc1ncccc1-c1nc2ccc(-n3cccn3)nc2n1-c1ccc2c(c1)CC[C@@H]2NC(=O)c1ccccn1 [Compound 36, N-[(1S)-5-[2-(2-aminopyridin-3-yl)-5-(pyrazol-1-yl)imidazo[4,5-b]pyridin-3-yl]-2,3-dihydro-1H-inden-1-yl]pyridine-2-carboxamide] | 58.6 nM | 164 nM | 1250 nM | 3460 nM | – | – | – | –
12 | Nc1ncccc1-c1nc2ccc(-n3cccn3)nc2n1-c1ccc2c(c1)CC[C@@H]2NC(=O)c1ccnc2sccc12 [Compound 363] | 7.74 nM | 57.9 nM | 67.2 nM | 1420 nM | – | – | – | –
13 | COc1cc(C(=O)N[C@H]2CCc3cc(-n4c(-c5cccnc5N)nc5ccc(-n6nccn6)nc54)ccc32)cnn1 [Compound 426] | – | – | – | 1510 nM | 3.17 nM | 59 nM | 360 nM | –
14 | Nc1ncccc1-c1nc2ccc(-n3cccn3)nc2n1-c1ccc2c(c1)CC[C@@H]2NC(=O)C1CC1 [Compound 37, N-[(1S)-5-[2-(2-aminopyridin-3-yl)-5-(pyrazol-1-yl)imidazo[4,5-b]pyridin-3-yl]-2,3-dihydro-1H-inden-1-yl]cyclopropanecarboxamide] | 175 nM | > 1000 nM | 7720 nM | > 10000 nM | – | – | – | –
15 | COc1ccn(-c2ccc3nc(-c4cccnc4N)n(-c4ccc5c(c4)CC[C@@H]5NC4CCN(C(=O)C5CC5)CC4)c3n2)n1 [Compound 440] | – | – | – | 5270 nM | 24.3 nM | > 1000 nM | 1750 nM | –
16 | Nc1ncccc1-c1nc2ccc(-n3cccn3)nc2n1-c1ccc2c(c1)CC[C@@H]2NC1CCN(c2ccccn2)C1 (stereo partly shown) [Compound 388] | 28.7 nM | 247 nM | 674 nM | – | – | – | – | 3140 nM
17 | Nc1ncccc1-c1nc2ccc(-n3cccn3)nc2n1-c1ccc2c(c1)CC[C@@H]2NC(=O)c1cccnc1 [Compound 34, N-[(1S)-5-[2-(2-aminopyridin-3-yl)-5-(pyrazol-1-yl)imidazo[4,5-b]pyridin-3-yl]-2,3-dihydro-1H-inden-1-yl]pyridine-3-carboxamide] | 6.27 nM | 24.1 nM | 64 nM | 555 nM | – | – | – | –
18 | Nc1ncccc1-c1nc2ccc(-n3cccn3)nc2n1-c1ccc2c(c1)CC[C@@H]2NC(=O)c1ccc(-n2cccn2)nc1 [Compound 54, (S)—N-(5-(2-(2-aminopyridin-3-yl)-5-(1H-pyrazol-1-yl)-3H-imidazo[4,5-b]pyridin-3-yl)-2,3-dihydro-1H-inden-1-yl)-6-(1H-pyrazol-1-yl)nicotinamide] | 12 nM | 17.4 nM | 10.7 nM | 207 nM | – | – | – | –
19 | O=C(N[C@H]1CCc2cc(-n3c(-c4ccccc4)nc4ccc(-c5ccn(C6CC6)n5)nc43)ccc21)c1ccc(C(F)F)nc1 [Compound 432] | – | – | – | 3500 nM | 14.6 nM | 145 nM | 1450 nM | –
20 | CN(C)c1ccc(F)c(C(=O)N[C@H]2CCc3cc(-n4c(-c5cccnc5N)nc5ccc(-n6cccn6)nc54)ccc32)c1 [Compound 7, N—{(S)-5-[2-(2-amino-3-pyridyl)-5-(1-pyrazolyl)-3H-1,3,4-triazainden-3-yl]-1-indanyl}5-(dimethylamino)-2-fluorobenzamide] | 7.29 nM | 320 nM | 118 nM | 2600 nM | – | – | – | –
21 | Nc1ncccc1-c1nc2ccc(-n3cccn3)nc2n1-c1ccc2c(c1)CC[C@@H]2NC(=O)c1ccc2oncc2c1 [Compound 20, (S)—N-(5-(2-(2-aminopyridin-3-yl)-5-(1H-pyrazol-1-yl)-3H-imidazo[4,5-b]pyridin-3-yl)-2,3-dihydro-1H-inden-1-yl)benzo[d]isoxazole-5-carboxamide] | 126 nM | 137 nM | 713 nM | 8490 nM | – | – | – | –
22 | Nc1ncccc1-c1nc2ccc(-n3nccn3)nc2n1-c1ccc2c(c1)CC[C@@H]2NC(=O)c1cccnc1 [Compound 58, (S)—N-(5-(2-(2-aminopyridin-3-yl)-5-(2H-1,2,3-triazol-2-yl)-3H-imidazo[4,5-b]pyridin-3-yl)-2,3-dihydro-1H-inden-1-yl)nicotinamide] | 30.7 nM | 157 nM | 2040 nM | 1900 nM | – | – | – | –
23 | Cc1ccc(C(=O)N[C@H]2CCc3cc(-n4c(-c5ccccc5F)nc5ccc(-n6cccn6)nc54)ccc32)cn1 [Compound 401] | – | – | – | 4210 nM | 10.9 nM | 108 nM | 2730 nM | –
24 | Nc1ncccc1-c1nc2ccc(-n3cccn3)nc2n1-c1ccc2c(c1)CC(F)[C@@H]2NC1CCN(C(=O)C2CC2)CC1 (single isomer, unassigned) [Compound 386] | 17.6 nM | > 487 nM | 1310 nM | > 7160 nM | – | – | – | –
25 | Nc1ncccc1-c1nc2ccc(-n3nccn3)nc2n1-c1ccc2c(c1)CC[C@@H]2NC(=O)c1ccc(C2CC2)nc1 [Compound 491] | – | – | – | 285 nM | 5.37 nM | 23.6 nM | 351 nM | –
